Source: patent publication US7858621B2 (Amorepacific Corporation, priority 2006, dated 2010)

biological target: T1, vanilloid receptor (Rattus norvegicus, UniProt O35433); test: 45Ca influx test in cultured neonatal rat DRG neurons, inhibition of capsaicin response; assay type: cell-based; conditions: neonatal rat DRG neurons, capsaicin 0.5 μM, 45Ca influx; read-out: Antagonist Calcium Uptake Test (IC50)
T1 construct: DRG nerve cells from the primary culture of 2 days were equilibrated; endogenous in cells; host or cells: primary culture of dorsal root ganglion neurons from neonatal SD rats
Description: 1) Separation of Spinal Dorsal Root Ganglia (DRG) in Newborn Rats and Primary Culture Thereof
Neonatal (2-3 day old or younger than 2-3 day old) SD rats were put in ice for 5 minutes to anesthetize and disinfected with 70% ethanol. […] The DRG were incubated sequentially at 37° C. for 30 mins in 200 U/ml collagenase and 2.5 mg/ml trypsin, separately. The ganglia were washed twice with DME/F12 medium supplemented with 10% horse serum, triturated through a fire-polished Pasteur pipette, filtered through Nitex 80 membrane to obtain single cell suspension and the suspension was washed once more. This was subjected to centrifugation, then resuspended in cell culture medium at certain level of cell density. As the cell culture medium, DME/F12 medium supplemented with 10% horse serum was diluted with identical medium conditioned by C6 glioma cells 2 days on a confluent monolayer (1:1), and NGF (Nerve Growth Factor) was added to adjust 200 ng/ml as final concentration. After the cells were grown 2 days in medium where cytosine arabinoside (Ara-C, 100 μM) was added to kill dividing nonneuronal cells, medium was changed to one without Ara-C. The resuspended cells were plated at a density of 1500-2000 neurons/well onto Terasaki plates previously coated with 10 μg/ml poly-D-ornithine.
2) ^45Ca Influx Experiments
DRG nerve cells from the primary culture of 2 days were equilibrated by washing 4 times with HEPES (10 mM, pH 7.4)-buffered Ca^2+, Mg^2+-free HBSS (H-HBSS). The solution in each well was removed from the individual well. Medium containing the test compound plus capsaicin (final concentration 0.5 μM) and ^45Ca (final concentration 10 μCi/ml) in H-HBSS was added to each well and incubated at room temperature for 10 mins. Terasaki plates were washed five times with H-HBSS and dried at room temperature. To each well, 0.3% SDS (10 μl) was added to elute ^45Ca. After the addition of scintillation cocktail of into each well, the amount of ^45Ca influx into neuron was measured by counting radioactivity.

T1 sequence (O35433 whole entry): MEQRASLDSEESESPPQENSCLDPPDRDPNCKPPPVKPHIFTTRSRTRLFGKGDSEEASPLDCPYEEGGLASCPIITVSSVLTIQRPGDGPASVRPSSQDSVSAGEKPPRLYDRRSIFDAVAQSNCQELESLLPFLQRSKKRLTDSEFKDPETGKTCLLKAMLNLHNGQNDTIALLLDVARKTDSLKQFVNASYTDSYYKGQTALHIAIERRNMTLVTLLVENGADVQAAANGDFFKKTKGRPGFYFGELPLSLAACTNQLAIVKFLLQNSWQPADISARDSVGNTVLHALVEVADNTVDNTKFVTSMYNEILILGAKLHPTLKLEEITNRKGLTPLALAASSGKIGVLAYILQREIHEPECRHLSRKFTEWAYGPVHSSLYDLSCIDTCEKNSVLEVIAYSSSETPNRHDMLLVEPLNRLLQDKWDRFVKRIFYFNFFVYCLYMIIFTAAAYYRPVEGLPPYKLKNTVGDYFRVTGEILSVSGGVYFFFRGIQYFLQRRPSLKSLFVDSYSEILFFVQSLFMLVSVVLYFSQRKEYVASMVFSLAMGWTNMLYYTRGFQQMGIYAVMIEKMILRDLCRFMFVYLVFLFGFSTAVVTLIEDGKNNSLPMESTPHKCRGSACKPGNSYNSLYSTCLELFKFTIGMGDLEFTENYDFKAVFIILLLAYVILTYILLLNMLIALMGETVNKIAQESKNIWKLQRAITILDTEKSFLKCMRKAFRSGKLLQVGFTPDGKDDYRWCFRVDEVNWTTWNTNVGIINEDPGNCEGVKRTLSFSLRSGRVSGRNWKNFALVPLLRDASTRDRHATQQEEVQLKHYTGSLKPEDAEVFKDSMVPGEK

SMILES | IC50 [µM]
CC(C)(C)c1ccc(/C=C/C(=O)NCc2ccc(NS(C)(=O)=O)c(F)c2)c(Br)n1 [Example 36, 3-(2-Bromo-6-tert-butyl-pyridin-3-yl)-N-(3-fluoro-4-methanesulfonylamino-benzyl)-acrylamide] | 0.18
C#Cc1cc(CNC(=O)/C=C/c2ccc(C(F)(F)F)nc2OC(C)CC)cc(F)c1NS(C)(=O)=O (stereo not drawn) [Example 77, 3-(2-sec-Butoxy-6-trifluoromethyl-pyridin-3-yl)-N-(3-ethynyl-5-fluoro-4-methanesulfonylamino-benzyl)-acrylamide] | 0.34
C=CS(=O)(=O)Nc1ccc(CNC(=O)/C=C/c2ccc(C(F)(F)F)nc2CCc2ccccc2)cc1 [Example 268, N-(4-Ethenesulfonylamino-benzyl)-3-(2-phenethyl-6-trifluoromethyl-pyridin-3-yl)-acrylamide] | 2.9
C[C@@H](NC(=O)/C=C/c1ccc(C(F)(F)F)nc1N(C)c1ccccc1)c1ccc(NS(C)(=O)=O)c(F)c1 [Example 165, (R)—N-[1-(3-Fluoro-4-methanesulfonylamino-phenyl)-ethyl]-3-[2-(methyl-phenylamino)-6-trifluoromethyl-pyridin-3-yl]-acrylamide] | 0.16
CC(C)Nc1nc(C(F)(F)F)ccc1/C=C/C(=O)N[C@H](C)c1cc(F)c(NS(C)(=O)=O)c(F)c1 [Example 227, (R)—N-[1-(3,5-Difluoro-4-methanesulfonylamino-phenyl)-ethyl]-3-(2-isopropylamino-6-trifluoromethyl-pyridin-3-yl)-acrylamide] | 0.019
CS(=O)(=O)Nc1ccc(CNC(=O)/C=C/c2ccc(C(F)(F)F)nc2Oc2cccnc2)cc1F [Example 81, N-(3-Fluoro-4-methanesulfonylamino-benzyl)-3-[2-(pyridin-3-yloxy)-6-trifluoromethyl-pyridin-3-yl]-acrylamide] | 11.9
C#Cc1cc(CNC(=O)/C=C/c2ccc(C(F)(F)F)nc2OC2CCCC2)cc(F)c1NS(C)(=O)=O [Example 92, 3-(2-Cyclopentoxy-6-trifluoromethyl-pyridin-3-yl)-N-(3-ethynyl-5-fluoro-4-methanesulfonylamino-benzyl)-acrylamide] | 0.52
CS(=O)(=O)Nc1ccc(CNC(=O)/C=C/c2ccc(C(F)(F)F)nc2OC2CCOC2)cc1F (stereo not drawn) [Example 104, 3-[2-(Tetrahydro-furan-3-yloxy)-6-trifluoromethyl-pyridin-3-yl]-N-(3-fluoro-4-methanesulfonylamino-benzyl)-acrylamide] | 1.6
CCCCOc1nc(C(F)(F)F)ccc1CCC(=O)NCc1ccc(NS(C)(=O)=O)c(F)c1 [Example 86, 3-(2-Butoxy-6-trifluoromethyl-pyridin-3-yl)-N-(3-fluoro-4-methanesulfonylamino-benzyl)-propionamide] | 1.2
C=CS(=O)(=O)Nc1ccc(CNC(=O)/C=C/c2ccc(C(F)(F)F)nc2CC(C)C)cc1 [Example 269, N-(4-Ethenesulfonylamino-benzyl)-3-(2-isobutyl-6-trifluoromethyl-pyridin-3-yl)-acrylamide] | 1.4
CS(=O)(=O)Nc1ccc(CNC(=O)/C=C/c2ccc(Cl)nc2)cc1F [Examples 16] | > 10
C=Cc1cc(CNC(=O)/C=C/c2ccc(C(C)(C)C)nc2)ccc1NS(C)(=O)=O [Examples 4] | 0.22

Next, values leading:

IC50 [µM] | SMILES
0.31 | C#Cc1cc(CNC(=O)/C=C(/CCC)c2ccc(C(F)(F)F)nc2CCC)cc(F)c1NS(C)(=O)=O [Example 275]
0.025 | C#Cc1cc(CNC(=O)/C=C/c2ccc(C(F)(F)F)nc2NCC)cc(F)c1NS(C)(=O)=O [Example 249, 3-(2-Ethylamino-6-trifluoromethyl-pyridin-3-yl)-N-(3-ethynyl-5-fluoro-4-methanesulfonylamino-benzyl)-acrylamide]
0.42 | Cc1cc(CNC(=O)/C=C/c2ccc(C(F)(F)F)nc2N2CCOCC2)cc(F)c1NS(C)(=O)=O [Example 8, N-(3-Fluoro-4-methanesulfonylamino-5-methyl-benzyl)-3-(2-morpholin-4-yl-6-trifluoromethyl-pyridin-3-yl)-acrylamide]
2.2 | CS(=O)(=O)Nc1ccc(CNC(=O)/C=C/c2ccc(C(F)(F)F)nc2OCC(F)(F)F)cc1F [Example 87, N-(3-Fluoro-4-methanesulfonylamino-benzyl)-3-[2-(2,2,2-trifluoro-ethoxy)-6-trifluoromethyl-pyridin-3-yl]-acrylamide]
> 10 | C#Cc1cc(CNC(=O)/C=C/c2ccc(Cl)nc2)cc(F)c1NS(C)(=O)=O [Example 14, 3-(6-Chloro-pyridin-3-yl)-N-(3-ethynyl-5-fluoro-4-methanesulfonylamino-benzyl)-acrylamide]
0.47 | CCOC(=O)C1CCCN(c2nc(C(F)(F)F)ccc2/C=C/C(=O)NCc2cc(F)c(NS(C)(=O)=O)c(C#N)c2)C1 (stereo not drawn) [Example 115, N-(3-Cyano-5-fluoro-4-methansulfonylamino-benzyl)-3-[2-(3-ethoxycarbonyl-piperid-1-yl)-6-trifluoromethyl-pyridin-3-yl]-acrylamide]
0.19 | CCC(C)c1nc(C(F)(F)F)ccc1/C=C/C(=O)NCc1cc(F)c(NS(C)(=O)=O)c(F)c1 (stereo not drawn) [Example 235, N-(3,5-Difluoro-4-methanesulfonylamino-benzyl)-3-(2-sec-butyl-6-trifluoromethyl-pyridin-3-yl)-acrylamide]
2.4 | CCOCc1nc(C(F)(F)F)ccc1/C=C/C(=O)NCc1ccc(NS(C)(=O)=O)c(F)c1 [Example 160, N-(3-Fluoro-4-methanesulfonylamino-benzyl)-3-(2-ethoxymethyl-6-trifluoromethyl-pyridin-3-yl)-acrylamide]
0.35 | CCCCc1nc(C(F)(F)F)ccc1C#CC(=O)NCc1cc(F)c(NS(C)(=O)=O)c(F)c1 [Example 261, 3-(2-Butyl-6-trifluoromethyl-pyridin-3-yl)-propynoic acid 3,5-difluoro-4-methanesulfonylamino-benzylamide]
0.13 | C#Cc1cc(CNC(=O)/C=C/c2ccc(C(F)(F)F)nc2OC(C)C)cc(F)c1NS(C)(=O)=O [Example 70, 3-(2-Isopropoxy-6-trifluoromethyl-pyridin-3-yl)-N-(3-ethynyl-5-fluoro-4-methanesulfonylamino-benzyl)-acrylamide]
0.13 | CCNc1nc(C(F)(F)F)ccc1/C=C/C(=O)NCc1cc(F)c(NS(C)(=O)=O)cc1F [Example 255, N-(2,5-Difluoro-4-methanesulfonylamino-benzyl)-3-(2-ethylamino-6-trifluoromethyl)-pyridin-3-yl-acrylamide]
0.55 | C#Cc1cc(CNC(=O)/C=C/c2ccc(C(F)(F)F)nc2COCC)cc(F)c1NS(C)(=O)=O [Example 161, N-(3-Ethynyl-5-fluoro-4-methanesulfonylamino-benzyl)-3-(2-ethoxymethyl-6-trifluoromethyl-pyridin-3-yl)-acrylamide]
0.15 | CC(C)Cc1nc(C(F)(F)F)ccc1/C=C/C(=O)NCc1cc(F)c(NS(C)(=O)=O)c(C#N)c1 [Example 163, N-(3-Cyano-5-fluoro-4-methanesulfonylamino-benzyl)-3-(2-isobutyl-6-trifluoromethyl-pyridin-3-yl)-acrylamide]
0.6 | CS(=O)(=O)Nc1c(F)cc(CNC(=O)/C=C/c2ccc(C(F)(F)F)nc2Nc2ccccc2)cc1C#N [Example 128, N-(3-Cyano-5-fluoro-4-methanesulfonylamino-benzyl)-3-(2-phenylamino-6-trifluoromethyl-pyridin-3-yl)-acrylamide]
1.1 | CS(=O)(=O)Nc1c(F)cc(CNC(=O)/C=C/c2ccc(C(F)(F)F)nc2N2CCOCC2)cc1F [Example 21, N-(3,5-Difluoro-4-methanesulfonylamino-benzyl)-3-(2-morpholin-4-yl-6-trifluoromethyl-pyridin-3-yl)-acrylamide]
0.076 | C#Cc1cc(CNC(=O)/C=C/c2ccc(C(F)(F)F)nc2C(C)C)cc(F)c1NS(C)(=O)=O [Example 231, N-(3-Ethynyl-5-fluoro-4-methanesulfonylamino-benzyl)-3-(2-isopropyl-6-trifluoromethyl-pyridin-3-yl)-acrylamide]
0.075 | CCCCNc1nc(C(F)(F)F)ccc1/C=C/C(=O)NCc1ccc(NS(C)(=O)=O)c(C)c1 [Example 187, N-(4-Methanesulfonylamino-3-methyl-benzyl)-3-(2-butylamino-6-trifluoromethyl-pyridin-3-yl)-acrylamide]
0.2 | C#Cc1cc(CNC(=O)/C=C/c2cc(Cl)c(C(F)(F)F)nc2CCCC)cc(F)c1NS(C)(=O)=O [Example 76, 3-(2-Butyl-5-chloro-6-trifluoromethyl-pyridin-3-yl)-N-(3-ethynyl-5-fluoro-4-methanesulfonylamino-benzyl)-acrylamide]
